Reference: PubChem BioAssay AID1259407 (Chemical Carcinogenesis Research Information System (CCRIS), 2018)
Calls of active or inactive are those of the source. No rule for the calls is given here.

Tested on: CCRIS mutagenicity, Ames/micronucleus/aberration tests
Test: CCRIS mutagenicity studies
[1] = Test System: AMES SALMONELLA TYPHIMURIUM, Strain/Indicator: TA98, Metabolic Activation: NONE, Method: STANDARD PLATE
[2] = Test System: AMES SALMONELLA TYPHIMURIUM, Strain/Indicator: TA100, Metabolic Activation: NONE, Method: STANDARD PLATE
[3] = Test System: AMES SALMONELLA TYPHIMURIUM, Strain/Indicator: TA1535, Metabolic Activation: NONE, Method: STANDARD PLATE
[4] = Test System: AMES SALMONELLA TYPHIMURIUM, Strain/Indicator: TA1537, Metabolic Activation: NONE, Method: STANDARD PLATE
[5] = Test System: AMES SALMONELLA TYPHIMURIUM, Strain/Indicator: TA1538, Metabolic Activation: NONE, Method: STANDARD PLATE
[6] = Test System: MOUSE LYMPHOMA, Strain/Indicator: L5178Y (TK+/TK-), Metabolic Activation: NONE, Method: SUSPENSION/PLATE
[7] = Test System: AMES SALMONELLA TYPHIMURIUM, Strain/Indicator: TA100, Metabolic Activation: RAT, LIVER, S-9, AROCLOR 1254, Method: STANDARD PLATE

Which results are given for `C[CH2][Ge]([Cl])([CH2]C)[CH2]C`?
mutagenic call (Test System: AMES SALMONELLA TYPHIMURIUM, Strain/Indicator: TA98, Metabolic Activation: HAMSTER, LIVER, S-9, AROCLOR 1254 (10%), Method: STANDARD PLATE): inactive; negative; mutagenic call [1]: inactive; negative; mutagenic call (Test System: AMES SALMONELLA TYPHIMURIUM, Strain/Indicator: TA98, Metabolic Activation: RAT, LIVER, S-9, AROCLOR 1254 (10%), Method: STANDARD PLATE): inactive; negative; mutagenic call (Test System: AMES SALMONELLA TYPHIMURIUM, Strain/Indicator: TA100, Metabolic Activation: HAMSTER, LIVER, S-9, AROCLOR 1254 (10%), Method: STANDARD PLATE): inactive; negative; mutagenic call [2]: inactive; negative; mutagenic call (Test System: AMES SALMONELLA TYPHIMURIUM, Strain/Indicator: TA100, Metabolic Activation: RAT, LIVER, S-9, AROCLOR 1254 (10%), Method: STANDARD PLATE): inactive; negative; mutagenic call (Test System: AMES SALMONELLA TYPHIMURIUM, Strain/Indicator: TA1535, Metabolic Activation: HAMSTER, LIVER, S-9, AROCLOR 1254 (10%), Method: STANDARD PLATE): inactive; negative; mutagenic call [3]: inactive; negative; mutagenic call (Test System: AMES SALMONELLA TYPHIMURIUM, Strain/Indicator: TA1535, Metabolic Activation: RAT, LIVER, S-9, AROCLOR 1254 (10%), Method: STANDARD PLATE): inactive; negative; mutagenic call (Test System: AMES SALMONELLA TYPHIMURIUM, Strain/Indicator: TA1537, Metabolic Activation: HAMSTER, LIVER, S-9, AROCLOR 1254 (10%), Method: STANDARD PLATE): inactive; negative; mutagenic call [4]: inactive; negative; mutagenic call (Test System: AMES SALMONELLA TYPHIMURIUM, Strain/Indicator: TA1537, Metabolic Activation: RAT, LIVER, S-9, AROCLOR 1254 (10%), Method: STANDARD PLATE): inactive; negative; mutagenic call (Test System: AMES SALMONELLA TYPHIMURIUM, Strain/Indicator: TA1538, Metabolic Activation: HAMSTER, LIVER, S-9, AROCLOR 1254 (10%), Method: STANDARD PLATE): inactive; negative; mutagenic call [5]: inactive; negative; mutagenic call (Test System: AMES SALMONELLA TYPHIMURIUM, Strain/Indicator: TA1538, Metabolic Activation: RAT, LIVER, S-9, AROCLOR 1254 (10%), Method: STANDARD PLATE): inactive; negative; mutagenic call [6]: inactive; negative. reevaluation of results: inconclusive; mutagenic call (Test System: MOUSE LYMPHOMA, Strain/Indicator: L5178Y (TK+/TK-), Metabolic Activation: RAT, LIVER, S-9, AROCLOR 1254, Method: SUSPENSION/PLATE): inactive; negative. reevaluation of results: negative

With `CCn1cc(C(=O)O)c(=O)c2cc(F)c(-c3ccncc3)c(F)c21` as the molecule, how does the mutagenic call (Test System: AMES SALMONELLA TYPHIMURIUM, Strain/Indicator: TA98, Metabolic Activation: MOUSE, LIVER, S-9, AROCLOR 1254, Method: STANDARD PLATE) read?
The mutagenic call was “inactive; negative”.

And the mutagenic call [1]?
Its mutagenic call is “inactive; negative”.

And the mutagenic call (Test System: AMES SALMONELLA TYPHIMURIUM, Strain/Indicator: TA98, Metabolic Activation: RAT, LIVER, S-9, AROCLOR 1254, Method: STANDARD PLATE)?
The mutagenic call was “inactive; negative”.

What about the mutagenic call (Test System: AMES SALMONELLA TYPHIMURIUM, Strain/Indicator: TA100, Metabolic Activation: MOUSE, LIVER, S-9, AROCLOR 1254, Method: STANDARD PLATE) of the same molecule?
Its mutagenic call is “inactive; negative”.

What about the mutagenic call [2] of the same molecule?
Its mutagenic call is “inactive; negative”.

And the mutagenic call [7]?
The mutagenic call was “inactive; negative”.

What about the mutagenic call (Test System: AMES SALMONELLA TYPHIMURIUM, Strain/Indicator: TA1535, Metabolic Activation: MOUSE, LIVER, S-9, AROCLOR 1254, Method: STANDARD PLATE) of the same molecule?
Its mutagenic call is “inactive; negative”.

And the mutagenic call [3]?
The mutagenic call was “inactive; negative”.

And the mutagenic call (Test System: AMES SALMONELLA TYPHIMURIUM, Strain/Indicator: TA1535, Metabolic Activation: RAT, LIVER, S-9, AROCLOR 1254, Method: STANDARD PLATE)?
Its mutagenic call is “inactive; negative”.

And the mutagenic call (Test System: AMES SALMONELLA TYPHIMURIUM, Strain/Indicator: TA1537, Metabolic Activation: MOUSE, LIVER, S-9, AROCLOR 1254, Method: STANDARD PLATE)?
Its mutagenic call is “inactive; negative”.

What about the mutagenic call [4] of the same molecule?
Its mutagenic call is “inactive; negative”.

What about the mutagenic call (Test System: AMES SALMONELLA TYPHIMURIUM, Strain/Indicator: TA1537, Metabolic Activation: RAT, LIVER, S-9, AROCLOR 1254, Method: STANDARD PLATE) of the same molecule?
The mutagenic call was “inactive; negative”.

What about the mutagenic call (Test System: CHINESE HAMSTER OVARY, Strain/Indicator: CHO-K1-CMZ (HGPRT), Metabolic Activation: NONE) of the same molecule?
Its mutagenic call is “active; positive”.

What about the mutagenic call (Test System: CHINESE HAMSTER V-79, Strain/Indicator: V-79/6-THIOGUANINE, Metabolic Activation: NONE) of the same molecule?
Its mutagenic call is “active; positive”.

And the mutagenic call (Test System: CHINESE HAMSTER V-79, Strain/Indicator: V-79/6-THIOGUANINE, Metabolic Activation: RAT, LIVER, S-9, AROCLOR 1254)?
Its mutagenic call is “active; positive”.

And the mutagenic call [6]?
Its mutagenic call is “active; positive”.

What about the mutagenic call (Test System: MOUSE LYMPHOMA, Strain/Indicator: L5178Y (TK+/TK-), Metabolic Activation: RAT, LIVER, S-9, Method: SUSPENSION/PLATE) of the same molecule?
Its mutagenic call is “active; positive”.

Which results are given for `NNc1ccccc1`?
mutagenic call (End Point: IN VITRO CHROMOSOMAL ABERRATIONS, Test System: CHL CELLS, Metabolic Activation: NONE): active; positive (structural changes); mutagenic call (End Point: IN VITRO CHROMOSOMAL ABERRATIONS, Test System: CHL CELLS, Metabolic Activation: RAT, LIVER, S-9, SODIUM PHENOBARBITAL AND 5,6-BENZOFLAVONE): active; positive (structural changes); authors report equivocal results for ploidy chang; mutagenic call (Test System: AMES SALMONELLA TYPHIMURIUM, Strain/Indicator: TA98, Metabolic Activation: NONE, Method: PREINCUBATION): active; positive; mutagenic call (Test System: AMES SALMONELLA TYPHIMURIUM, Strain/Indicator: TA98, Metabolic Activation: RAT LIVER S-9, PHENOBARBITAL AND BETA-NAPHTHOFLAVONE, Method: PREINCUBATION): active; positive; mutagenic call (Test System: AMES SALMONELLA TYPHIMURIUM, Strain/Indicator: TA100, Metabolic Activation: NONE, Method: PREINCUBATION): inactive; negative; mutagenic call [2]: active; positive; mutagenic call (Test System: AMES SALMONELLA TYPHIMURIUM, Strain/Indicator: TA100, Metabolic Activation: RAT KIDNEY, MICROSOMES, Method: STANDARD PLATE): active; positive; mutagenic call (Test System: AMES SALMONELLA TYPHIMURIUM, Strain/Indicator: TA100, Metabolic Activation: RAT LIVER S-9, PHENOBARBITAL AND BETA-NAPHTHOFLAVONE, Method: PREINCUBATION): inactive; negative; mutagenic call (Test System: AMES SALMONELLA TYPHIMURIUM, Strain/Indicator: TA1530, Metabolic Activation: NONE, Method: STANDARD PLATE): active; positive; mutagenic call (Test System: AMES SALMONELLA TYPHIMURIUM, Strain/Indicator: TA1535, Metabolic Activation: NONE, Method: PREINCUBATION): inactive; negative; mutagenic call (Test System: AMES SALMONELLA TYPHIMURIUM, Strain/Indicator: TA1535, Metabolic Activation: RAT LIVER S-9, PHENOBARBITAL AND BETA-NAPHTHOFLAVONE, Method: PREINCUBATION): inactive; negative; mutagenic call (Test System: AMES SALMONELLA TYPHIMURIUM, Strain/Indicator: TA1535, Metabolic Activation: RAT, LIVER, S-9, AROCLOR 1254, Method: PREINCUBATION): inactive; negative; mutagenic call (Test System: AMES SALMONELLA TYPHIMURIUM, Strain/Indicator: TA1537, Metabolic Activation: NONE, Method: PREINCUBATION): active; positive; mutagenic call (Test System: AMES SALMONELLA TYPHIMURIUM, Strain/Indicator: TA1537, Metabolic Activation: RAT LIVER S-9, PHENOBARBITAL AND BETA-NAPHTHOFLAVONE, Method: PREINCUBATION): active; positive; mutagenic call (Test System: AMES SALMONELLA TYPHIMURIUM, Strain/Indicator: TA1537, Metabolic Activation: RAT, LIVER, S-9, AROCLOR 1254, Method: PREINCUBATION): active; positive; mutagenic call (Test System: AMES SALMONELLA TYPHIMURIUM, Strain/Indicator: TA2638, Metabolic Activation: NONE, Method: STANDARD PLATE): active; positive; mutagenic call (Test System: E. COLI, Strain/Indicator: WP2 (PKM101), Metabolic Activation: NONE, Method: STANDARD PLATE): active; positive; mutagenic call (Test System: E. COLI, Strain/Indicator: WP2 UVRA (PKM101), Metabolic Activation: NONE, Method: STANDARD PLATE): active; positive; mutagenic call (Test System: E.COLI, Strain/Indicator: WP2UVRA, Metabolic Activation: NONE, Method: PREINCUBATION): active; positive; mutagenic call (Test System: E.COLI, Strain/Indicator: WP2UVRA, Metabolic Activation: RAT LIVER S-9, PHENOBARBITAL AND BETA-NAPHTHOFLAVONE, Method: PREINCUBATION): active; positive

With `CC[N+](CC)=c1ccc2nc3c(cc(N)c4ccccc43)oc-2c1` as the molecule, how does the mutagenic call [7] read?
Its mutagenic call is “active; positive”.

What about the mutagenic call [5] of the same molecule?
Its mutagenic call is “inactive; negative”.

And the mutagenic call (Test System: AMES SALMONELLA TYPHIMURIUM, Strain/Indicator: TA1538, Metabolic Activation: RAT, LIVER, S-9, AROCLOR 1254, Method: STANDARD PLATE)?
Its mutagenic call is “active; positive”.
